Results from ChEMBL document CHEMBL1201862, “PubChem BioAssay data set” (2004).
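Interpolation was linear, between the two tested concentrations surrounding the appropriate level; five concentrations were tested over 48 hours in 96-well plates. The concentration for 50% growth inhibition is given as GI50.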 Calls of active or inactive are those of the source. Cut-off read from the data, not from the text of the source: active = GI50 up to about 1.1 µM and inactive = higher.

Assays:
Test in all cases: NCI anticancer screen, dose series, 48 h
786-0 = tested on: 786-0
ACHN = tested on: ACHN
CAKI-1 = tested on: CAKI-1
HCT-15 = tested on: HCT-15
HOP-62 = tested on: HOP-62
Hs-578T = tested on: Hs-578T
K562 = tested on: K562
MDA-N = tested on: MDA-N
NCI-H226 = tested on: NCI-H226
SF-268 = tested on: SF-268
SF-295 = tested on: SF-295
SF-539 = tested on: SF-539
SK-MEL-28 = tested on: SK-MEL-28
SK-MEL-2 = tested on: SK-MEL-2
SK-OV-3 = tested on: SK-OV-3
SNB-75 = tested on: SNB-75
UACC-257 = tested on: UACC-257
LOX IMVI = tested on: LOX IMVI
MOLT-4 = tested on: MOLT-4
HL-60 = tested on: HL-60

Structure (SMILES)	GI50 (786-0)	GI50 (ACHN)	GI50 (CAKI-1)	GI50 (HCT-15)	GI50 (HOP-62)	GI50 (Hs-578T)	GI50 (K562)	GI50 (MDA-N)	GI50 (NCI-H226)	GI50 (SF-268)	GI50 (SF-295)	GI50 (SF-539)	GI50 (SK-MEL-28)	GI50 (SK-MEL-2)	GI50 (SK-OV-3)	GI50 (SNB-75)	GI50 (UACC-257)	GI50 (LOX IMVI)	GI50 (MOLT-4)	GI50 (HL-60)
O=C1NC(=O)c2ccc([N+](=O)[O-])c3cccc1c23	14 µM (inactive)	19 µM (inactive)	23.5 µM (inactive)	5.31 µM	20 µM (inactive)	25.2 µM (inactive)	10.9 µM (inactive)	12.4 µM (inactive)	14.3 µM (inactive)	24.4 µM (inactive)	17.6 µM (inactive)	17.9 µM (inactive)	20.2 µM (inactive)	32.3 µM (inactive)	23.1 µM (inactive)	40.1 µM (inactive)	16.9 µM (inactive)			
CN(C)CC(C)(C)CN1c2ccccc2Sc2ccccc21	12.9 µM (inactive)	15.1 µM (inactive)	12.1 µM (inactive)	> 100 µM	12.9 µM (inactive)	14 µM (inactive)	8.55 µM (inactive)	15 µM (inactive)	18 µM (inactive)	14.5 µM (inactive)	13.8 µM (inactive)	19.7 µM (inactive)	13.5 µM (inactive)	15.4 µM (inactive)	13.2 µM (inactive)	4.28 µM (inactive)	12 µM (inactive)	13.6 µM (inactive)	6.55 µM (inactive)	
O=[N+]([O-])c1c2nc3n(c2cc2c1nc1n2CCC1)CCC3	> 100 µM (inactive)	> 100 µM (inactive)	> 100 µM (inactive)	> 100 µM	> 100 µM (inactive)	> 100 µM (inactive)	> 100 µM (inactive)	> 100 µM (inactive)	> 100 µM (inactive)	> 100 µM (inactive)	> 100 µM (inactive)	> 100 µM (inactive)	> 100 µM (inactive)		> 100 µM (inactive)	> 100 µM (inactive)	> 100 µM (inactive)	> 100 µM (inactive)	> 100 µM (inactive)	> 100 µM (inactive)
CCOC(=O)N/N=C(\CC)NO	> 100 µM (inactive)	> 100 µM (inactive)	> 100 µM (inactive)	> 100 µM	> 100 µM (inactive)	> 100 µM (inactive)	> 100 µM (inactive)	> 100 µM (inactive)	> 100 µM (inactive)	> 100 µM (inactive)		> 100 µM (inactive)	> 100 µM (inactive)	> 100 µM (inactive)	> 100 µM (inactive)		> 100 µM (inactive)	> 100 µM (inactive)	> 100 µM (inactive)	> 100 µM (inactive)
O=c1[nH]c(=O)n(C2CC(O)C(CO)O2)cc1/N=N/NCc1ccccc1 (centres undefined)	> 100 µM (inactive)	> 100 µM (inactive)	> 100 µM (inactive)	> 100 µM	> 100 µM (inactive)	> 100 µM (inactive)	> 100 µM (inactive)	> 100 µM (inactive)	> 100 µM (inactive)	> 100 µM (inactive)	59 µM (inactive)		> 100 µM (inactive)		> 100 µM (inactive)	> 100 µM (inactive)	> 100 µM (inactive)	> 100 µM (inactive)	> 100 µM (inactive)	> 100 µM (inactive)
COc1cc([C@@H]2c3cc4c(cc3[C@@H](Nc3ccccc3C(=O)c3ccccc3)[C@H]3COC(=O)[C@H]23)OCO4)cc(OC)c1OC	0.618 µM (active)	0.535 µM (active)	0.741 µM (active)	0.444 µM	2.11 µM (inactive)	0.373 µM (active)	0.35 µM (active)	0.316 µM (active)	0.431 µM (active)	0.855 µM (active)	0.376 µM (active)	0.259 µM (active)	0.472 µM (active)	> 100 µM (inactive)		0.849 µM (active)	0.933 µM (active)	0.313 µM (active)	0.38 µM (active)	0.212 µM (active)
COC(=O)c1c(OC(C)=O)ccc2c1c1c(n2C)C(=O)c2ccccc2C1=O	25.5 µM (inactive)	15.6 µM (inactive)	20.7 µM (inactive)	24.8 µM	17.3 µM (inactive)	8.38 µM (inactive)	66.2 µM (inactive)	19 µM (inactive)	38.9 µM (inactive)	24.4 µM (inactive)	21.5 µM (inactive)	19.1 µM (inactive)	31.8 µM (inactive)	23.2 µM (inactive)	12.9 µM (inactive)	7.93 µM (inactive)	13.1 µM (inactive)		18.3 µM (inactive)	32.1 µM (inactive)
COc1cc2c3c(n(Cc4ccccc4)c(=O)c2cc1OC)-c1ccccc1C3=O	93.5 µM (inactive)	> 100 µM (inactive)	92.9 µM (inactive)	> 100 µM	> 100 µM (inactive)	63.7 µM (inactive)	> 100 µM (inactive)	> 100 µM (inactive)	> 100 µM (inactive)	82.2 µM (inactive)	> 100 µM (inactive)	90.2 µM (inactive)	> 100 µM (inactive)	> 100 µM (inactive)		32.3 µM (inactive)	> 100 µM (inactive)	> 100 µM (inactive)	20.5 µM (inactive)	> 100 µM (inactive)
O=C(NNC(=O)c1ccccc1O)c1ccccc1O	0.141 µM (active)	0.0507 µM (active)	< 0.0237 µM (active)	0.11 µM	2.31 µM (inactive)	0.0149 µM (active)	< 0.0221 µM (active)	0.0247 µM (active)	0.873 µM (active)	< 0.0233 µM (active)	0.189 µM (active)	0.033 µM (active)	22.4 µM (inactive)		0.341 µM (active)	0.0565 µM (active)	0.376 µM (active)	0.0918 µM (active)	0.0385 µM (active)	0.0528 µM (active)
CCC[C@H]1C(=O)N=C(N)N1C(=O)OCc1ccccc1	> 100 µM (inactive)	> 100 µM (inactive)	> 100 µM (inactive)	> 100 µM	> 100 µM (inactive)	> 100 µM (inactive)	> 100 µM (inactive)	> 100 µM (inactive)	> 100 µM (inactive)	> 100 µM (inactive)	> 100 µM (inactive)	> 100 µM (inactive)	> 100 µM (inactive)	> 100 µM (inactive)		> 100 µM (inactive)	> 100 µM (inactive)	> 100 µM (inactive)	> 100 µM (inactive)	> 100 µM (inactive)
COc1cc(C=O)ccc1O [VANILLIN]	> 100 µM (inactive)	> 100 µM (inactive)	> 100 µM (inactive)	> 100 µM	> 100 µM (inactive)	> 100 µM (inactive)	> 100 µM (inactive)	> 100 µM (inactive)	> 100 µM (inactive)	> 100 µM (inactive)	> 100 µM (inactive)	> 100 µM (inactive)	> 100 µM (inactive)			> 100 µM (inactive)	> 100 µM (inactive)	> 100 µM (inactive)	> 100 µM (inactive)	> 100 µM (inactive)
